Measurements published in paper PMC2892103 (Journal of molecular biology, 2010).

Target: T1, E. coli TrmD (Escherichia coli, UniProt P0A873)
T1 sequence (P0A873 1-255): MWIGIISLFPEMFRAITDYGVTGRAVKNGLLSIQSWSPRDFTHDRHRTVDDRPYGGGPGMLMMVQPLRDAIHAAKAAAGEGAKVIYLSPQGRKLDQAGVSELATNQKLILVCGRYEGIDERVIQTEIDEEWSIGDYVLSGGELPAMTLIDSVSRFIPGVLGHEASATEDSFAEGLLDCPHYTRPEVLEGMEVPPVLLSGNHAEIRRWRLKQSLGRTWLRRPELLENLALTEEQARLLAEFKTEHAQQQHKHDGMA
Experiment: intrinsic tryptophan fluorescence quenching, quadratic fit
Format: binding

| Structure (SMILES) | Kd [nM] |
| --- | --- |
| C[S+](CC[C@H](N)C(=O)O)C[C@H]1O[C@@H](n2cnc3c(N)ncnc32)[C@H](O)[C@@H]1O (some centres unmarked) [AdoMet] | 1100 ± 200 |
| Nc1ncnc2c1ncn2[C@@H]1O[C@H](CSCC[C@H](N)C(=O)O)[C@@H](O)[C@H]1O [AdoHcy] | 330 ± 40 |
